Assay results as given in US6133292A, “Diaryl-5-alkyl-5-methyl-2-(5H)-furanones as selective cyclooxygenase-2-inhibitors” (Merck Frosst Canada & Co., priority 1998, dated 2000).

Assay: Pharmacokinetics in rats (half-life)
Assay type: in vivo, rat (male Sprague Dawley)
Settings: rat, blood, read-out: T 1/2 in Rats (converted)
Excerpt: Per Os Pharmacokinetics in Rats--Procedure:
The animals are housed, fed and cared for according to the Guidelines of the Canadian Council on Animal Care. Male Sprague Dawley rats (325-375 g) are fasted overnight prior to each PO blood level study. The rats are placed in the restrainer one at a time and the box firmly secured. The zero blood sample is obtained by nicking a small (1 mm or less) piece off the tip of the tail. The tail is then stroked with a firm but gentle motion from the top to the bottom to milk out the blood. Approximately 1 mL of blood is collected into a heparirnized vacutainer tube.
Compounds are prepared as required, in a standard dosing volume of 10 mL/kg, and administered orally by passing a 16 gauge, 3" gavaging needle into the stomach. Subsequent bleeds are taken in the same manner as the zero bleed except that there is no need to nick the tail again. The tail is cleaned with a piece of gauze and milked/stroked as described above into the appropriately labelled tubes.
Immediately after sampling, blood is centrifuged, separated, put into clearly marked vials and stored in a freezer until analysed. Typical time points for determination of rat blood levels after PO dosing are 0, 15 min, 30 min, 1 h, 2 h, 4 h, and 6 h.
After the 4 hr time point bleed, food is provided to the rats ad libitum. Water is provided at all times during the study.
The following vehicles may be used in PO rat blood level determinations:
Compounds for PO blood levels can be in suspension form. For better dissolution, the solution can be placed in a sonicator for approximately 5 minutes.
For analysis, aliquots are diluted with an equal volume of acetonitrile and centrifuged to remove protein precipitate. The supernatant is injected directly onto a C-18 HPLC column with UV detection. Quantitation is done relative to a clean blood sample spiked with a known quantity of drug.
Intravenous Pharmacokinetics in Rats--Procedure
The animals are housed, fed and cared for according to the Guidelines of the Canadian Council on Animal Care. Male Sprague Dawley (325-375 g) rats are placed in plastic shoe box cages with a suspended floor, cage top, water bottle and food. The compound is prepared as required, in a standard dosing volume of 1 mL/kg.
Rats are bled for the zero blood sample and dosed under CO2 sedation. The rats, one at a time, are placed in a primed CO2 chamber and taken out as soon as they have lost their righting reflex. The rat is then placed on a restraining board, a nose cone with CO2 delivery is placed over the muzzle and the rat restrained to the board with elastics. With the use of forceps and scissors, the jugular vein is exposed and the zero sample taken, followed by a measured dose of compound which is injected into the jugular vein. Light digital pressure is applied to the injection site, and the nose cone is removed. The time is noted. This constitutes the zero time point.
The 5 min bleed is taken by nicking a piece (1-2 mm) off the tip of the tail. The tail is then stroked with a firm but gentle motion from the top of the tail to the bottom to milk the blood out of the tail. Approximately 1 mL of blood is collected into a heparinized collection vial. Subsequent bleeds are taken in the same fashion, except that there is no need to nick the tail again. The tail is cleaned with a piece of gauze and bled, as described above, into the appropriate labelled tubes. Typical time points for determination of rat blood levels after I.V. dosing are either a) 0, 5 min, 15 min, 30 min, 1 h, 2 h, 6 h, or b) 0, 5 min, 30 min, 1 h, 2 h, 4 h, 6 h.
The following vehicles may be used in IV rat blood level determinations:
DMSO (dimethylsulfoxide): Restricted to a dose volume of 0.1 mL per animal
PEG 200: Not more than 60% mixed with 40% sterile water --1 mL/kg
With Dextrose, either sodium bicarbonate or sodium carbonate can be added if the solution is cloudy. […]

| SMILES | half-life |
| --- | --- |
| CC1(C)OC(=O)C(c2ccc(F)cc2)=C1c1ccc(S(C)(=O)=O)cc1 [Compound T3-1, 3-(4-fluorophenyl)-5,5-dimethyl-4-[4-(methylsulfonyl)phenyl]-2,5-dihydro-2-furanone, reference compound] | > 24 h |
| CCCC1(C)OC(=O)C(c2ccc(F)cc2)=C1c1ccc(S(C)(=O)=O)cc1 (centres unmarked) [n, 3-(4-fluorophenyl)-5-methyl-4-[4-(methylsulfonyl)phenyl]-5-propyl-2,5-dihydro-2-furanone] | ~1 h |

Second part, the compound after the results:

| half-life | SMILES |
| --- | --- |
| 4.8 h | CC[C@]1(C)OC(=O)C(c2ccc(F)c(F)c2)=C1c1ccc(S(C)(=O)=O)cc1 [i, (5S)-3-(3,4-difluorophenyl)-5-ethyl-5-methyl-4-[4-(methylsulfonyl)phenyl] -2,5-dihydro-2-furanone] |
| 3 h | CCC1(C)OC(=O)C(c2ccc(F)cc2)=C1c1ccc(S(C)(=O)=O)cc1 (centres unmarked) [c, 5-ethyl-3-(4-fluorophenyl)-5-methyl-4-[4-(methylsulfonyl)phenyl]-2,5-dihydro-2-furanone] |
| 3.6 h | CC[C@@]1(C)OC(=O)C(c2ccc(F)c(F)c2)=C1c1ccc(S(C)(=O)=O)cc1 [h, (5R)-3-(3,4-difluorophenyl)-5-ethyl-5-methyl-4-[4-(methylsulfonyl)phenyl] -2,5-dihydro-2-furanone] |
